Data taken from the PolyMetriX glass transition set.
± gives the standard deviation of the reports.

glass transition temperature | SMILES
113.00 °C | *Oc1ccc(C(c2ccc(Oc3c(F)c(F)c(COC(c4cccc(C(OCc5c(F)c(F)c(*)c(F)c5F)(C(F)(F)F)C(F)(F)F)c4)(C(F)(F)F)C(F)(F)F)c(F)c3F)cc2)(C(F)(F)F)C(F)(F)F)cc1 (repeat unit)
142.00 °C | *Oc1ccc(C(c2ccc(OC(=O)OC3C(C)(C)C(OC(*)=O)C3(C)C)cc2)(C(F)(F)F)C(F)(F)F)cc1 (repeat unit)
215.00 °C | *c1ccc(Sc2ccc(S(*)(=O)=O)cc2)cc1 (repeat unit)
223.50 °C | *Sc1ccc(Sc2ccc(Sc3ccc4c(c3)C(=O)N(N3C(=O)c5ccc(*)cc5C3=O)C4=O)cc2)cc1 (repeat unit)
200.00 °C | *C1C(*)C2CC1C(C(=O)OCCCc1ccccc1)C2C(=O)OCCCc1ccccc1 (repeat unit)
147.00 °C | *Oc1ccc(Oc2ccc(OC(=O)c3ccccc3-c3ccccc3C(*)=O)cc2)cc1 (repeat unit)
242.00 °C | *Oc1ccc(C2(c3ccc(Oc4ccc(C(=O)C(=O)c5ccc(*)cc5)cc4)cc3)c3ccccc3-c3ccccc32)cc1 (repeat unit)
198.00 °C | *c1ccc(Oc2ccc(C(C)(C)c3ccc(Oc4ccc(-c5nnc(*)n5-c5ccc(S(=O)(=O)c6ccccc6)cc5)cc4)cc3)cc2)cc1 (repeat unit)
257.00 °C | *Oc1ccc(NC(=O)c2cc(C(=O)Nc3ccc(*)cc3)cc(C(F)(F)C(F)(F)C(F)(F)C(F)(F)F)c2)cc1 (repeat unit)
175.00 °C | *Oc1c([2H])c([2H])c(S(=O)(=O)c2c([2H])c([2H])c(Oc3c([2H])c([2H])c(C(c4c([2H])c([2H])c(*)c([2H])c4[2H])(C([2H])([2H])[2H])C([2H])([2H])[2H])c([2H])c3[2H])c([2H])c2[2H])c([2H])c1[2H] (repeat unit)
72.00 °C | *CCCCCCNC(=O)NCc1ccc(CNC(=O)N*)cc1 (repeat unit)
115.00 °C | *CC(O)COc1ccc(C(C)(c2ccccc2)c2ccc(O*)cc2)cc1 (repeat unit)
176.00 °C | *c1cc(/N=N/c2ccc(C#N)cc2)cc(*)c1O (repeat unit)
-49.00 °C | *CCOCCOCCOC(=O)CCCCC(=O)O* (repeat unit)
165.00 °C | *CCOCCOCCOc1ccc(C(=O)Nc2cc(NC(=O)c3ccc(O*)cc3)cc(-c3nc4ccccc4[nH]3)c2)cc1 (repeat unit)
96.50 °C | */C=C/C1CC(*)C(C(=O)Oc2ccccc2)C1C(=O)Oc1ccccc1 (repeat unit)
60.00 °C | *CCCCCOC(=O)c1ccc(/C=C/c2ccc(C(=O)O*)cc2)cc1 (repeat unit)
35.00 °C | *CC(*)(C)C(=O)OCC1COCCOCCOCCO1 (repeat unit)
152.00 °C | *[Si](*)(C)c1ccc(COCCN(CC)c2ccc(/N=N/c3ccc([N+](=O)[O-])cc3)cc2)cc1 (repeat unit)
206.00 °C | *Oc1c(Br)cc(C(c2cc(Br)c(OC(*)=O)c(Br)c2)(C(F)(F)F)C(F)(F)F)cc1Br (repeat unit)
330.00 °C | *c1ccc2oc(-c3ccc(C(c4ccccc4)(c4ccc(-c5nc6cc(C(*)(c7ccccc7)C(F)(F)F)ccc6o5)cc4)C(F)(F)F)cc3)nc2c1 (repeat unit)
114.00 °C | *CCCCCCCCCCCC(=O)Oc1ccc(C2(c3ccc(OC(=O)c4ccc5c(c4)C(=O)N(*)C5=O)cc3)OC(=O)c3ccccc32)cc1 (repeat unit)
240.00 °C | *Oc1ccc(C(=O)Nc2ccc(Cc3ccc(NC(=O)c4ccc(Oc5ccc(C(=O)c6ccc(S(=O)(=O)c7ccc(C(=O)c8ccc(*)cc8)cc7)cc6)cc5)cc4)cc3)cc2)cc1 (repeat unit)
198.00 °C | */C(=C/c1cc(OC)c(/C=C(\c2ccccc2)c2ccc3cc(*)ccc3c2)cc1OC)c1ccccc1 (repeat unit)
58.00 °C | */C=C/c1cc(OCCCCCCCC)c(*)cc1OC (repeat unit)
-65.00 °C | *O[Si](C)(C)c1ccc([Si](C)(C)O[SiH](*)C)cc1 (repeat unit)

glass transition temperature | SMILES
-35.10 °C | *CCCCCCCCCCCCCCCCCCCCOC(=O)CC(=O)O* (repeat unit)
100.00 °C | *CC(O)CN(C)S(=O)(=O)c1cccc(S(=O)(=O)N(C)CC(O)COc2ccc(S(=O)(=O)c3ccc(O*)cc3)cc2)c1 (repeat unit)
103.20 °C | *CC(*)(C)C(=O)OCCCCCCCCCCOc1ccc(/N=N/c2ccc(C3OCC4(CO3)CC3C=CC4C3)cc2)cc1 (repeat unit)
53.00 °C | *CCCCCCCCCCCOC(=O)c1cc(OCCCCCCCCCCOc2ccc(/N=N/c3ccc(OC)cc3)cc2)cc(C(=O)OCCCCCCCCCCCOc2ccc(-c3ccc(O*)cc3)cc2)c1 (repeat unit)
-60.50 °C | *C(=O)CCCCCCCCC(=O)N1CC(C)N(*)CC1C (repeat unit)
140.00 °C | *CC(*)(C)C(=O)Oc1c(OC)cc(/C=C/c2ccccc2)cc1OC (repeat unit)
80.00 °C | *CC(*)OC(=O)c1cccc([Si](C)(C)C)c1 (repeat unit)
190.2 °C | *Oc1ccc(NC(=O)c2cc(-c3ccc(C(=O)OCC)c(C(=O)Nc4ccc(*)cc4)c3)ccc2C(=O)OCC)cc1 (repeat unit)
116.00 °C | *CCCCCCOc1ccc(/C=C2\CCC/C(=C\c3ccc(O*)cc3)C2=O)cc1 (repeat unit)
202.7 °C | *c1ccc(Sc2ccc(Sc3ccc(Sc4ccc(N5C(=O)c6ccc(Oc7ccc8c(c7)C(=O)N(*)C8=O)cc6C5=O)cc4)cc3)cc2)cc1 (repeat unit)
149.00 °C | *Oc1ccc(C(=O)c2ccc(C(=O)c3ccc(*)c(C(C)C)c3)cc2)cc1C (repeat unit)
77.00 °C | *CCCCCCc1nc2cc(NC(=O)CCCCCCC(=O)Nc3ccc4oc(*)nc4c3)ccc2o1 (repeat unit)
308.00 °C | *c1ccc2c(c1)C(=O)N(c1ccc(Oc3c(C)cc(C(c4cc(C)c(Oc5ccc(N6C(=O)c7ccc(C(*)(C(F)(F)F)C(F)(F)F)cc7C6=O)cc5)c(C)c4)c4cccc5ccccc45)cc3C)cc1)C2=O (repeat unit)
70.00 °C | *Oc1ccc(C(=O)OCCCCCCCOC(=O)c2ccc(OC(=O)c3ccc(C(*)=O)cc3)cc2)cc1 (repeat unit)
78.00 °C | *Oc1ccc(CC(NC(=O)CCc2ccc(OC(=O)CCC(*)=O)cc2)C(=O)OCC)cc1 (repeat unit)
287.00 °C | *c1ccc(C(=O)Nc2ccc(Oc3ccc(S(=O)(=O)c4ccc(Oc5ccc(NC(=O)c6ccc(N7C(=O)c8ccc(-c9cccc%10c9C(=O)N(*)C%10=O)cc8C7=O)cc6)cc5)cc4)cc3)cc2)cc1 (repeat unit)
76.00 °C | *CC(*)c1ccc(C(=O)OCCCC)cc1 (repeat unit)
139.00 °C | *CCC1CC(*)C2C3CC(c4ccc(COC(C)CC)cc4)C(C3)C12 (repeat unit)
203.00 °C | *Nc1cccc(CCc2ccc(NC(=O)c3cccc(C(*)=O)c3)cc2)c1 (repeat unit)
358.00 °C | *C(=O)Nc1cccc(NC(=O)c2ccc3c(c2)C(=O)N(c2cc(-c4nc5ccccc5s4)cc(N4C(=O)c5ccc(*)cc5C4=O)c2)C3=O)n1 (repeat unit)
302.30 °C | *c1ccc2c(c1)C(=O)N(c1ccc(Oc3ccc4ccc(Oc5ccc(N6C(=O)c7ccc(C(*)(C(F)(F)F)C(F)(F)F)cc7C6=O)cc5)cc4c3)cc1)C2=O (repeat unit)
104.00 °C | *CCCCCC(=O)Oc1ccc(C(C)(C)c2ccc(C(C)(C)c3ccc(OC(=O)c4ccc5c(c4)C(=O)N(*)C5=O)cc3)cc2)cc1 (repeat unit)
16.00 °C | *CCOCCOCCOc1ccc(/C=C(\C)c2ccc(O*)cc2)cc1 (repeat unit)
174.00 °C | *Oc1ccc(NC(=O)c2ccc(Oc3ccc(C(C)(C)c4ccc(C(C)(C)c5ccc(Oc6ccc(C(=O)Nc7ccc(*)cc7)cc6)cc5)cc4)cc3)cc2)cc1 (repeat unit)
183.00 °C | *CC(*)C(=O)OC12CC3CC(CC(C3)C1)C2 (repeat unit)
317.50 °C | *c1ccc(C(=O)Nc2ccc(Oc3ccc(NC(=O)c4ccc(Oc5ccc(-c6nn(*)c(=O)c7ccccc67)c6ccccc56)cc4)cc3)cc2)cc1 (repeat unit)

SMILES | glass transition temperature
*CC(CC)(CCl)CO* (repeat unit) | 20.00 °C
*CC(*)c1ccc2ccccc2c1 (repeat unit) | 146.50 °C
*OP(=O)(Oc1ccc(Br)cc1)Oc1c(C)cc(S(=O)(=O)c2cc(C)c(*)c(C)c2)cc1C (repeat unit) | 162.00 °C
*C1Oc2ccccc2C1* (repeat unit) | 65.20 °C
*CC(CSCCCC)O* (repeat unit) | -65.00 °C
*CC(*)(C)C(=O)OCc1cccc(Cl)c1 (repeat unit) | 18.2 °C
*CC(*)[Si](C)(C)Cc1ccccc1 (repeat unit) | -24.00 °C
*CC(*)C(F)(F)C(F)(F)C(F)(F)F (repeat unit) [Poly[(heptafluoropropyl)ethylene] ] | 58 ± 0.6 °C
*CC(*)(CF)C(=O)OCC (repeat unit) | 43.00 °C
*c1ccc2c(c1)C(=O)N(c1cc(NC(=O)OCCN(CCOC(=O)Nc3cc(N4C(=O)c5ccc(C(*)(C(F)(F)F)C(F)(F)F)cc5C4=O)ccc3C)c3ccc(/N=N/c4ccc([N+](=O)[O-])cc4)cc3)ccc1C)C2=O (repeat unit) | 196.00 °C
*CC(*)(C)C(=O)OCC1(C)COCOC1 (repeat unit) | 142.00 °C
*CCOCO* (repeat unit) | -64.00 °C
*CCCCCOC(=O)c1ccccc1C(=O)[O][Cd][O]C(=O)c1ccccc1C(=O)OCCCCCOC(=O)NCCCCCCNC(=O)O* (repeat unit) | -6.80 °C
*CC(CO*)(CSC(C)C)CSC(C)C (repeat unit) | -9.00 °C
